Measured values as given in article PMC3898987 (Bioorganic & Medicinal Chemistry, 2013).
Changes are numbered by the printed parent chain.

Legend:
[1] = biological target: T1, 5-HT3AB receptor, 5-HT3B subunit Y143A (Homo sapiens, UniProt O95264+P46098, Y136A); assay: FlexStation membrane potential dye functional assay, HEK293 cells; conditions: 5-HT concentration-response, 5-HT3AB with 5-HT3B Y143A
T1 sequence (P46098 24-478): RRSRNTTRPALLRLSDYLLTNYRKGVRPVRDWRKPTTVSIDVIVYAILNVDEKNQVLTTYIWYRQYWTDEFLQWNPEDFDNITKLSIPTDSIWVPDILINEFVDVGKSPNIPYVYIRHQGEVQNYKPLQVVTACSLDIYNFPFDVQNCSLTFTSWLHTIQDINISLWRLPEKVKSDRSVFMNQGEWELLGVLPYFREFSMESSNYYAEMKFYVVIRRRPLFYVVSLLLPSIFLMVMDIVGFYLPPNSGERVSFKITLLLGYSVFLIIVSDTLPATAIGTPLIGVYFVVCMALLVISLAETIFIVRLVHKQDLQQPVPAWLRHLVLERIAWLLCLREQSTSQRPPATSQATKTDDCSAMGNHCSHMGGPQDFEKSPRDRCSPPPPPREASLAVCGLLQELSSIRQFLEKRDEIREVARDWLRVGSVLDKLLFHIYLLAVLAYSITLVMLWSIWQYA
T1 sequence (O95264 22-441 Y136A): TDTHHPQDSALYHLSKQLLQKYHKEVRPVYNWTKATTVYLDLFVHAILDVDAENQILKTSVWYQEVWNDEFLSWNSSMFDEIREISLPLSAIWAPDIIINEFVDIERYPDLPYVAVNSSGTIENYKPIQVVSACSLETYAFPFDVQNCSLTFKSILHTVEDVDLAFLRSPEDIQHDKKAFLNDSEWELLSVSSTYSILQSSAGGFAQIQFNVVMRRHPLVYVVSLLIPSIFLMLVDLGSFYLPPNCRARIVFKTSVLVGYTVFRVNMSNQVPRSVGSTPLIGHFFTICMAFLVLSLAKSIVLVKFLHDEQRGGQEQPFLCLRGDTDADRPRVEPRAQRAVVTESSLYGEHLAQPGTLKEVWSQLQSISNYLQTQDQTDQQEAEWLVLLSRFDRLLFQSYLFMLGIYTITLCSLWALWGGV
Description: For FlexStation assays, transfected cells were plated on 96-well plates and incubated 1–2 days before assay.
(§1) Fluorometric studies were undertaken using a FlexStation® (Molecular Devices, Sunnyvale, CA, USA) as previously described.[11]
(§2) Fluorescence was measured every 2 s for 200 s. […] Concentration–response and inhibition curves were obtained for each mutant, and the fluorescence values were normalized to the maximal response.

[2] = biological target: T2, 5-HT3AB receptor, 5-HT3B subunit F130A (Homo sapiens, UniProt O95264+P46098, F123A); assay: as above; conditions: 5-HT concentration-response, 5-HT3AB with 5-HT3B F130A
T2 sequence (P46098 24-478): T1 sequence (P46098 24-478)
T2 sequence (O95264 22-441 F123A): T1 sequence (O95264 22-441 Y136A) with F102A, A115Y
Description: (§3) Human embryonic kidney (HEK) 293 cells were cultured on 90 mm tissue culture plates at 37 °C and 7% CO2 in a humidified atmosphere. They were grown in DMEM:F12 (Dulbecco’s Modified Eagle’s Medium/Nutrient Mix F12 (1:1)) with GlutaMAX I™ containing 10% fetal calf serum and passaged when confluent. […] For FlexStation assays, transfected cells were plated on 96-well plates and incubated 1–2 days before assay.
as §1, §2

[3] = biological target: T3, 5-HT3AB receptor, 5-HT3B subunit W90C (Homo sapiens, UniProt O95264+P46098, W83C); assay: cell-based
T3 sequence (P46098 24-478): T1 sequence (P46098 24-478)
T3 sequence (O95264 22-441 W83C): T1 sequence (O95264 22-441 Y136A) with W62C, A115Y
Description: as §3, §1, §2

[4] = biological target: T1, 5-HT3AB receptor, 5-HT3B subunit Y143A; assay: radioligand saturation binding, transfected HEK293 membranes; conditions: [3H]-palonosetron saturation, 5-HT3AB with 5-HT3B Y143A, 4 °C, 24 h
Description: Human embryonic kidney (HEK) 293 cells were cultured on 90 mm tissue culture plates at 37 °C and 7% CO2 in a humidified atmosphere. They were grown in DMEM:F12 (Dulbecco’s Modified Eagle’s Medium/Nutrient Mix F12 (1:1)) with GlutaMAX I™ containing 10% fetal calf serum and passaged when confluent. For radioligand binding studies, cells in 90 mm dishes were transfected at 60–70% confluency using polyethyleneimine and incubated for 3–4 days before use. For FlexStation assays, transfected cells were plated on 96-well plates and incubated 1–2 days before assay. […]
Eight-point binding assays were performed to produce saturation binding curves. […] Radioactive counts were measured using a Beckman LS6000SC liquid scintillation counter (Fullerton, California, USA).
Data were analyzed by iterative curve fitting using GraphPad Prism v5 (San Diego, CA) according to the following equation: B=Bmax[L]^n/kdn+[L]^n where B is the amount of bound radioligand, Bmax is the maximum specific binding at equilibrium, [L] is the concentration of radioligand, Kd is the equilibrium dissociation constant of the radioligand, and n is the Hill coefficient.

[5] = biological target: T4, 5-HT3AB receptor, 5-HT3B subunit E170A (Homo sapiens, UniProt P46098); assay: FlexStation membrane potential dye functional assay, HEK293 cells; assay type: cell-based
T4 construct: variant as stated: E170A
T4 sequence (P46098 24-478): T1 sequence (P46098 24-478)
T4 sequence (O95264 22-441 partner): T1 sequence (O95264 22-441 Y136A) with A115Y
Description: as §3
Mutagenesis reactions were performed using either the Kunkel method or the QuikChange kit (Agilent Technologies Inc., CA, USA) using human 5-HT3A or 5-HT3B receptor subunit cDNA (accession numbers: P46098 and O95264) in pcDNA3.1 (Invitrogen, Paisley, UK). Subunit numberings have been altered to the aligning residues in the mouse 5-HT3A subunit for ease of comparison with other studies.
as §1, §2

Row | Compound | Hill Coefficient [1] | Hill Coefficient [2] | IC50 [3] | Kd [4] | IC50 [5]
1 | NCCc1c[nH]c2ccc(O)cc12 [5-HT, serotonin] | 1.3 ± 0.2 | 1.4 ± 0.2 | – | – | –
2 | O=C1c2cccc3c2[C@H](CCC3)CN1[C@@H]1CN2CCC1CC2 [Palonosetron] | – | – | 0.37 ± 0.1 nM | 0.18 ± 0.04 nM | 0.36 ± 0.11 nM
